Earlier results on 3 compounds are cited in patent US9463189B2 (BPV Holdings, LLC, priority 2007, dated 2016).

Counter-ions that a name gives are not always drawn.

One data set deals with PPAR. Particulars: shown in US2006/0167012A1 and US2006/0205736A1; cited from earlier work.
Data set [1] relates to methionine- and choline-deficient diet model of NASH. The note with it: Nagasawa T et al., Eur. J. Pharmacol. (2006); cited from earlier work.
Data set [2] has as its system genetically obese rodent model. The note with it: Gary-Bobo, M. et al., Hepatology 2007; cited from earlier work.

On to `C[C@@H]1CN(c2ccc(OC(F)(F)F)cc2)C[C@H](C)N1S(=O)(=O)c1cccc2c1C[C@@H](C(=O)O)C2` [Compound 1, (S)-4-[cis-2,6-Dimethyl-4-(4-trifluoromethoxy-phenyl)-piperazine-1-sulfonyl]-indan-2-carboxylic acid tosylate], for which the PPAR modulator activity result in the data set on PPAR is on record as “PPAR modulators”.

Consider `Cc1cc(SCc2sc(-c3ccc(C(F)(F)F)cc3)nc2C)ccc1OCC(=O)O` [GW501516], for which, in data set [1], the “fatty acid β-oxidation” value was “increased”, the hepatic steatosis result is given as “improved hepatic steatosis”, the hepatic triglyceride deposition entry is given as “decreased” and the inflammation result is reported as “decreased”. In addition, in data set [1], the “inflammatory cytokines or chemokines” value was “decreased” and the “number of activated hepatic stellate cells” value is reported as “decreased”.

With `Cc1c(C(=O)NN2CCCCC2)nn(-c2ccc(Cl)cc2Cl)c1-c1ccc(Cl)cc1` [rimonabant], the “outcome in genetically obese rodent model” value in data set [2] is “positive outcome”.
